Assay results published in ChEMBL document CHEMBL5053537, “Next generation Glucose-1-phosphate thymidylyltransferase (RmlA) inhibitors: An extended SAR study to direct future design” (Bioorg Med Chem, 2021).
≈ marks a conversion by molar mass, not a printed value.

Columns and labels:
[1] = tested on: Pseudomonas aeruginosa; assay: Inhibition of N-terminal His-tagged Pseudomonas aeruginosa RmIA expressed in Escherichia coli BL21 (lambdaDE3) at 10 uM using dTTP and G-1-P as substrates incubated for 30 mins by Biomol green reagent based assay relative to control
[2] = Inhibition of N-terminal His-tagged Pseudomonas aeruginosa RmIA expressed in Escherichia coli BL21 (lambdaDE3) using dTTP and G-1-P as substrates incubated for 30 mins by Biomol green reagent based assay
[3] = tested on: Mycobacterium tuberculosis; assay: Antimycobacterial activity against Mycobacterium tuberculosis assessed as inhibition of bacterial growth; format: functional; conditions: read-out: MIC100

Structure (SMILES) | inhibition [1] [%] | other results
CN(c1c(NCCCn2cc(CN)nn2)n(Cc2ccccc2)c(=O)[nH]c1=O)S(=O)(=O)c1ccccc1 | 100 | 
CN(c1c(NCCCCCN)n(Cc2ccc(Br)cc2)c(=O)[nH]c1=O)S(=O)(=O)c1ccccc1 | 100 | 
CNCCNc1c(N(C)S(=O)(=O)c2ccccc2)c(=O)[nH]c(=O)n1Cc1ccc(Br)cc1 |  | IC50 [2]: 96 nM
CN(c1c(N)n(Cc2ccc(Br)cc2)c(=O)[nH]c1=O)S(=O)(=O)c1ccccc1 | 100 | 
CN(c1c(NCCCCN)n(Cc2ccc(Br)cc2)c(=O)[nH]c1=O)S(=O)(=O)c1ccccc1 | 100 | 
CN(c1c(N)n(Cc2ccccc2)c(=O)[nH]c1=O)S(=O)(=O)c1ccccc1 |  | MIC [3]: 100 µg/mL (≈ 259 µM)
CNCCCNc1c(N(C)S(=O)(=O)c2ccccc2)c(=O)[nH]c(=O)n1Cc1ccc(Br)cc1 | 100 | 
